Measurements: the supplement of paper PMC10307832

Tests used:
Test in all cases: relative viability (nuclei count vs DMSO), 5 days (fraction); higher = more cells survive
[1] = compound: Cc1nc(NC(=O)N2CCC[C@H]2C(N)=O)sc1-c1ccnc(C(C)(C)C(F)(F)F)c1 [Alpelisib] + Nc1ncn([C@H]2C[C@H](O)[C@@H](CO)O2)c(=O)n1 [Decitabine] (partner 2 µM)
How it was run: (§1)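 Relative viability divides the nuclei count in treated wells by that in vehicle wells. Lung cancer cell lines were seeded in 1536-well plates, dosed by pin tool the next day, and fixed and stained after 5 days in one step with final 0.05% Triton X-100, 1% formaldehyde and 1 ug/ml Hoechst. Dosing was a single drug or a fixed anchor-drug dose plus five library-drug doses (not always all listed) in √10 steps, and values are medians of duplicate plates imaged at 4×.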

[2] = compound: COc1cccc2cc(-c3nc([C@H]4CC[C@H](C(=O)O)CC4)n4ncnc(N)c34)[nH]c12 [OSI-027] + Nc1nc2[nH]cc(CCc3ccc(C(=O)N[C@@H](CCC(=O)O)C(=O)O)cc3)c2c(=O)[nH]1 [Pemetrexed] (partner 0.2 µM)
How it was run: as §1

[3] = compound: CCCS(=O)(=O)Nc1ccc(F)c(C(=O)c2c[nH]c3ncc(-c4ccc(Cl)cc4)cc23)c1F [Vemurafenib] + Cc1nc(NC(=O)N2CCC[C@H]2C(N)=O)sc1-c1ccnc(C(C)(C)C(F)(F)F)c1 [Alpelisib] (partner 2 µM)
How it was run: as §1

[4] = compound: COc1cccc2cc(-c3nc([C@H]4CC[C@H](C(=O)O)CC4)n4ncnc(N)c34)[nH]c12 [OSI-027] + C[C@]1(O)C[C@@H](c2nc(-c3ccc4ccc(-c5ccccc5)nc4c3)c3c(N)nccn32)C1 [Linsitinib] (partner 1 µM)
How it was run: as §1

Cell Line | relative viability ([1]; first compound 0.04 µM) | relative viability ([1]; first compound 0.1265 µM) | relative viability ([1]; first compound 0.4 µM) | relative viability ([1]; first compound 1.265 µM) | relative viability ([1]; first compound 4 µM) | relative viability ([2]; first compound 0.01 µM) | relative viability ([2]; first compound 0.03162 µM) | relative viability ([2]; first compound 0.1 µM) | relative viability ([2]; first compound 0.3162 µM) | relative viability ([2]; first compound 1 µM) | relative viability ([3]; first compound 0.03162 µM) | relative viability ([3]; first compound 0.1 µM) | relative viability ([3]; first compound 0.3162 µM) | relative viability ([3]; first compound 1 µM) | relative viability ([4]; first compound 0.01 µM) | relative viability ([4]; first compound 0.03162 µM) | relative viability ([4]; first compound 0.1 µM) | relative viability ([4]; first compound 0.3162 µM) | relative viability ([4]; first compound 1 µM)
RERF-LC-KJ | 0.668 | 0.638 | 0.706 | 0.5 | 0.536 | 0.466 | 0.48 | 0.464 | 0.463 | 0.375 | 0.583 | 0.686 | 0.873 | 0.771 | 0.839 | 0.776 | 0.655 | 0.503 | 0.376
SK-LU-1 | 0.649 | 0.645 | 0.633 | 0.577 | 0.589 | 1.02 | 1.03 | 0.869 | 0.689 | 0.385 | 0.996 | 0.96 | 0.682 | 0.758 | 1.06 | 0.83 | 0.63 | 0.406 | 0.306
SK-MES-1 | 0.363 | 0.376 | 0.358 | 0.292 | 0.297 | 0.998 | 0.919 | 0.866 | 0.782 | 0.359 | 0.829 | 0.574 | 0.723 | 0.776 | 1.01 | 0.956 | 0.911 | 0.737 | 0.538
SW 1573 | 0.489 | 0.453 | 0.626 | 0.365 | 0.359 | 0.817 | 0.982 | 0.852 | 0.771 | 0.343 | 0.769 | 0.667 | 0.781 | 0.551 | 0.777 | 0.712 | 0.771 | 0.586 | 0.462
